Reference: patent publication US20250230193A1, “CYCLIC COMPOUND HAVING SELECTIVE KRAS INHIBITORY EFFECT ON HRAS AND NRAS” (CHUGAI SEIYAKU KABUSHIKI KAISHA, priority 2022, published 2025)

Experiments:
[1] = target: GDP-bound NRAS wild-type protein (Homo sapiens, UniProt P01111); assay: Binding to NRAS by surface plasmon resonance (SPR), Single Cycle Kinetics; conditions: KD ratio, GDP-bound NRAS wild-type vs GDP-bound KRAS wild-type, SPR
[2] = target: GDP-bound HRAS wild-type protein (Homo sapiens, UniProt P01112); assay: Binding to HRAS by surface plasmon resonance (SPR), Single Cycle Kinetics; conditions: KD ratio, GDP-bound HRAS wild-type vs GDP-bound KRAS wild-type, SPR
Sequence of GDP-bound HRAS wild-type protein (P01112 whole entry): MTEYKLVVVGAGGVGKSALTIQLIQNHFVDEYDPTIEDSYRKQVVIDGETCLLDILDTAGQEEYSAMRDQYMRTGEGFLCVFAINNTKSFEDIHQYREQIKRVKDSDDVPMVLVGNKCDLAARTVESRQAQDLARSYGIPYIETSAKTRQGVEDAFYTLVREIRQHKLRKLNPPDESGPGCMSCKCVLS

Sequence of GDP-bound NRAS wild-type protein (P01111 whole entry): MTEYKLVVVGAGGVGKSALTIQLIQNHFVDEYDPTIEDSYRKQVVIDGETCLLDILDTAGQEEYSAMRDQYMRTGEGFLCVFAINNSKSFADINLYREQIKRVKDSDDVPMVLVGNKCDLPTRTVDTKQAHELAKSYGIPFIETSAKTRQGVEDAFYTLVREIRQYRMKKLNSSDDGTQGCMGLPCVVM

Row | SMILES | NRAS/KRAS (ratio of KD value with respect to NRAS to KD value with respect to KRAS) [1] | HRAS/KRAS (ratio of KD value with respect to HRAS to KD value with respect to KRAS) [2]
1 | CCO[C@@H]1C[C@H]2C(=O)NC3(CCC3)C(=O)N(C)[C@@H](C3CCCC3)C(=O)N(C)[C@H](C(=O)N(C)C)CC(=O)N(C)[C@@H](CC)C(=O)N[C@@H]([C@@H](C)CC)C(=O)N(CC)CC(=O)N(C)[C@H]3C/C=C\CCN(C3=O)[C@@H](Cc3ccc(C(F)(F)F)cc3)C(=O)N(C)CC(=O)N[C@@H](CCc3cc(F)c(C(F)(F)F)c(F)c3)C(=O)N2C1 [PP1052] | A (a compound having 10 or more and less than 20 is denoted as A) | A (a compound having 10 or more and less than 20 is denoted as A)
2 | CCCN1CC(=O)N(C)[C@H]2C/C=C\CCN(C2=O)[C@@H](Cc2ccc(C(F)(F)F)cc2)C(=O)N(C)CC(=O)N[C@@H](CCc2cc(F)c(C(F)(F)F)c(F)c2)C(=O)N2C[C@H](OCC)C[C@H]2C(=O)NC2(CCC2)C(=O)N(C)[C@@H](C2CCCC2)C(=O)N(C)[C@H](C(=O)N(C)C)CC(=O)N(C)[C@@H](CC)C(=O)N[C@@H]([C@@H](C)CC)C1=O [PP1053] | A (a compound having 10 or more and less than 20 is denoted as A) | A (a compound having 10 or more and less than 20 is denoted as A)
3 | CCO[C@@H]1C[C@H]2C(=O)NC3(CCC3)C(=O)N(C)[C@@H](C3CCCC3)C(=O)N(C)[C@H](C(=O)N(C)C)CC(=O)N(C)[C@@H](CC)C(=O)N[C@@H]([C@@H](C)CC)C(=O)N(C)[C@@H](C)C(=O)N(C)[C@H]3C/C=C\CCN(C3=O)[C@@H](Cc3ccc(C(F)(F)F)cc3)C(=O)N(C)CC(=O)N[C@@H](CCc3cc(F)c(C(F)(F)F)c(F)c3)C(=O)N2C1 [PP1054] | A (a compound having 10 or more and less than 20 is denoted as A) | B (a compound having 3 or more and less than 10 is denoted as B)
4 | CCO[C@@H]1C[C@H]2C(=O)NC3(CCC3)C(=O)N(C)[C@@H](C3CCCC3)C(=O)N(C)[C@H](C(=O)N(C)C)CC(=O)N(C)[C@@H](CC)C(=O)N[C@@H]([C@@H](C)CC)C(=O)N3CCC[C@H]3C(=O)N(C)[C@H]3C/C=C\CCN(C3=O)[C@@H](Cc3ccc(C(F)(F)F)cc3)C(=O)N(C)CC(=O)N[C@@H](CCc3cc(F)c(C(F)(F)F)c(F)c3)C(=O)N2C1 [PP1056] | A (a compound having 10 or more and less than 20 is denoted as A) | A (a compound having 10 or more and less than 20 is denoted as A)
5 | CCO[C@@H]1C[C@H]2C(=O)NC3(CCC3)C(=O)N(C)[C@@H](C3CCCC3)C(=O)N(C)[C@H](C(=O)N(C)C)CC(=O)N(C)[C@@H](CC)C(=O)N[C@@H]([C@@H](C)CC)C(=O)N3C[C@H](OCC)C[C@H]3C(=O)N(C)[C@H]3C/C=C\CCN(C3=O)[C@@H](Cc3ccc(C(F)(F)F)cc3)C(=O)N(C)CC(=O)N[C@@H](CCc3cc(F)c(C(F)(F)F)c(F)c3)C(=O)N2C1 [PP1057] | A (a compound having 10 or more and less than 20 is denoted as A) | B (a compound having 3 or more and less than 10 is denoted as B)
6 | CCO[C@@H]1C[C@H]2C(=O)NC3(CCC3)C(=O)N(C)[C@@H](C3CCCC3)C(=O)N(C)[C@H](C(=O)N(C)C)CC(=O)N(C)[C@@H](CC)C(=O)N[C@@H]([C@@H](C)CC)C(=O)N3CCCC[C@H]3C(=O)N(C)[C@H]3C/C=C\CCN(C3=O)[C@@H](Cc3ccc(C(F)(F)F)cc3)C(=O)N(C)CC(=O)N[C@@H](CCc3cc(F)c(C(F)(F)F)c(F)c3)C(=O)N2C1 [PP1058] | A (a compound having 10 or more and less than 20 is denoted as A) | B (a compound having 3 or more and less than 10 is denoted as B)
7 | CCO[C@@H]1C[C@H]2C(=O)NC3(CCC3)C(=O)N(C)[C@@H](C3CCCC3)C(=O)N(C)[C@H](C(=O)N(C)C)CC(=O)N(C)[C@@H](CC)C(=O)N[C@@H]([C@@H](C)CC)C(=O)N3CCSC[C@H]3C(=O)N(C)[C@H]3C/C=C\CCN(C3=O)[C@@H](Cc3ccc(C(F)(F)F)cc3)C(=O)N(C)CC(=O)N[C@@H](CCc3cc(F)c(C(F)(F)F)c(F)c3)C(=O)N2C1 [PP1060] | A (a compound having 10 or more and less than 20 is denoted as A) | A (a compound having 10 or more and less than 20 is denoted as A)
8 | CCO[C@@H]1C[C@H]2C(=O)NC3(CCC3)C(=O)N(C)[C@@H](C3CCCC3)C(=O)N(C)[C@H](C(=O)N(C)C)CC(=O)N(C)[C@@H](CC)C(=O)N[C@@H]([C@@H](C)CC)C(=O)N3CC[C@@H]3C(=O)N(C)[C@H]3C/C=C\CCN(C3=O)[C@@H](Cc3ccc(C(F)(F)F)cc3)C(=O)N(C)CC(=O)N[C@@H](CCc3cc(F)c(C(F)(F)F)c(F)c3)C(=O)N2C1 [PP1064] | A (a compound having 10 or more and less than 20 is denoted as A) | A (a compound having 10 or more and less than 20 is denoted as A)
9 | CCO[C@@H]1C[C@H]2C(=O)NC3(CCC3)C(=O)N(C)[C@@H](C3CCCC3)C(=O)N(C)[C@H](C(=O)N(C)C)CC(=O)N(C)[C@@H](CC)C(=O)N[C@@H]([C@@H](C)CC)C(=O)N[C@@H](C)C(=O)N(C)[C@H]3C/C=C\CCN(C3=O)[C@@H](Cc3ccc(C(F)(F)F)cc3)C(=O)N(C)CC(=O)N[C@@H](CCc3cc(F)c(C(F)(F)F)c(F)c3)C(=O)N2C1 [PP1065] | A (a compound having 10 or more and less than 20 is denoted as A) | B (a compound having 3 or more and less than 10 is denoted as B)
10 | CC[C@H](C)[C@@H]1NC(=O)[C@H](CC(C)C)N(C)C(=O)C[C@@H](C(=O)N2CCOCC2)N(C)C(=O)[C@H](C2CCCC2)N(C)C(=O)C2(CCC2)NC(=O)[C@@H]2[C@@H](OC)CCN2C(=O)[C@H](CCc2cc(F)c(C(F)(F)F)c(F)c2)NC(=O)CN(C)C(=O)[C@H](Cc2ccc(C(F)(F)F)cc2)N2CCCCC[C@@H](C2=O)N(C)C(=O)CN(C)C1=O [PP1067] | B (a compound having 3 or more and less than 10 is denoted as B) | B (a compound having 3 or more and less than 10 is denoted as B)
11 | CCO[C@H]1CCN2C(=O)[C@H](CCc3cc(F)c(C(F)(F)F)c(F)c3)NC(=O)CN(C)C(=O)[C@H](Cc3ccc(C(F)(F)F)cc3)N3CCCCC[C@@H](C3=O)N(C)C(=O)CN(C)C(=O)[C@H]([C@@H](C)CC)NC(=O)[C@H](CC(C)C)N(C)C(=O)C[C@@H](C(=O)N3CCOCC3)N(C)C(=O)[C@H](C3CCCC3)N(C)C(=O)C3(CCC3)NC(=O)[C@H]12 [PP1068] | A (a compound having 10 or more and less than 20 is denoted as A) | B (a compound having 3 or more and less than 10 is denoted as B)
12 | CCCO[C@H]1CCN2C(=O)[C@H](CCc3cc(F)c(C(F)(F)F)c(F)c3)NC(=O)CN(C)C(=O)[C@H](Cc3ccc(C(F)(F)F)cc3)N3CCCCC[C@@H](C3=O)N(C)C(=O)CN(C)C(=O)[C@H]([C@@H](C)CC)NC(=O)[C@H](CC(C)C)N(C)C(=O)C[C@@H](C(=O)N3CCOCC3)N(C)C(=O)[C@H](C3CCCC3)N(C)C(=O)C3(CCC3)NC(=O)[C@H]12 [PP1069] | A (a compound having 10 or more and less than 20 is denoted as A) | B (a compound having 3 or more and less than 10 is denoted as B)
13 | CCCCO[C@H]1CCN2C(=O)[C@H](CCc3cc(F)c(C(F)(F)F)c(F)c3)NC(=O)CN(C)C(=O)[C@H](Cc3ccc(C(F)(F)F)cc3)N3CCCC[C@@H](C3=O)N(C)C(=O)CN(C)C(=O)[C@H]([C@@H](C)CC)NC(=O)[C@H](CC(C)C)N(C)C(=O)C[C@@H](C(=O)N3CCOCC3)N(C)C(=O)[C@H](C3CCCC3)N(C)C(=O)C3(CCC3)NC(=O)[C@H]12 [PP1071] | B (a compound having 3 or more and less than 10 is denoted as B) | B (a compound having 3 or more and less than 10 is denoted as B)
14 | CC[C@H](C)[C@@H]1NC(=O)[C@H](CC(C)C)N(C)C(=O)C[C@@H](C(=O)N2CCOCC2)N(C)C(=O)[C@H](C2CCCC2)N(C)C(=O)C2(CCC2)NC(=O)[C@@H]2[C@@H](OCC3CC3)CCN2C(=O)[C@H](CCc2cc(F)c(C(F)(F)F)c(F)c2)NC(=O)CN(C)C(=O)[C@H](Cc2ccc(C(F)(F)F)cc2)N2CCCC[C@@H](C2=O)N(C)C(=O)CN(C)C1=O [PP1072] | B (a compound having 3 or more and less than 10 is denoted as B) | B (a compound having 3 or more and less than 10 is denoted as B)
15 | CC[C@H](C)[C@@H]1NC(=O)[C@H](CC(C)C)N(C)C(=O)C[C@@H](C(=O)N2CCOCC2)N(C)C(=O)[C@H](C2CCCC2)N(C)C(=O)C2(CCC2)NC(=O)[C@@H]2[C@@H](OCC3CCCC3)CCN2C(=O)[C@H](CCc2cc(F)c(C(F)(F)F)c(F)c2)NC(=O)CN(C)C(=O)[C@H](Cc2ccc(C(F)(F)F)cc2)N2CCCC[C@@H](C2=O)N(C)C(=O)CN(C)C1=O [PP1073] | B (a compound having 3 or more and less than 10 is denoted as B) | B (a compound having 3 or more and less than 10 is denoted as B)
